Source: patent publication US12466804B2 (BRISTOL-MYERS SQUIBB COMPANY, priority 2019, dated 2025)

Each compound was assayed against T1, human LPA1 (Homo sapiens, UniProt Q92633) (assay: LPA1 functional antagonist assay (LPA-induced calcium flux)). Conditions: not given.
T1 construct: expressed in transfected cells; host or cells: Chinese hamster ovary (CHO) cells
Assay type: cell-based
Procedure: The effectiveness of compounds of the present invention as LPA1 inhibitors can be determined in an LPA1 functional antagonist assay as follows:
The cells were then equilibrated to room temperature for 30 minutes before the assay. […] IC50 values were determined by fitting data to a 4-parameter logistic equation (GraphPad Prism, San Diego CA).

T1 sequence (Q92633 whole entry): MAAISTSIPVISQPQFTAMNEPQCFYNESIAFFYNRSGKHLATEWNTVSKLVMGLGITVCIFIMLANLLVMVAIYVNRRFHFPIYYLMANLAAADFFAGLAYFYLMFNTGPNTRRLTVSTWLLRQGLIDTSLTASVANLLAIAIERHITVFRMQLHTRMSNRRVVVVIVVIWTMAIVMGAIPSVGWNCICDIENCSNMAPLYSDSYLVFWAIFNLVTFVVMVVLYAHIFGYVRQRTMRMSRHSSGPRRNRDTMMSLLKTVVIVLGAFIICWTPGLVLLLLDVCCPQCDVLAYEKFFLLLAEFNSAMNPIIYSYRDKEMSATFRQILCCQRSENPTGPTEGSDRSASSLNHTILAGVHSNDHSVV

Compound | IC50 [nM]
CN(CC1CCC1)C(=O)OCc1c(-c2ccc(OCC34CC(C(=O)O)(C3)C4)cn2)nnn1C [Example 54, 3-(((6-(5-((((cyclobutylmethyl)(methyl)carbamoyl)oxy)methyl)-1-methyl-1H-1,2,3-triazol-4-yl)pyridin-3-yl)oxy)methyl)bicyclo[1.1.1]pentane-1-carboxylic acid] | 427

Same assay, conditions: CHO cells overexpressing human LPA1; calcium flux induced by 10 nM LPA; read-out: hLPA1 IC50

Compound | IC50 [nM]
CCCCOC(=O)NCc1c(-c2ccc(OC[C@@H]3CC[C@H]3C(=O)O)c(C)n2)nnn1C (racemic) [Example 42, (±)-(1R,2R)-2-(((6-(5-(((butoxy-carbonyl)amino)methyl)-1-methyl-1H-1,2,3-triazol-4-yl)-2-methyl-pyridin-3-yl)oxy)methyl)cyclobutanecarboxylic acid] | 649
CC[C@H](C)COC(=O)NCc1c(-c2ccc(OC[C@@H]3CC[C@H]3C(=O)O)c(C)n2)nnn1C (racemic) [Example 43, (±)-(1R,2R)-2-(((2-methyl-6-(1-methyl-5-(((((S)-2-methyl-butoxy)carbonyl)amino)methyl)-1H-1,2,3-triazol-4-yl)pyridin-3-yl)oxy)methyl)cyclobutane carboxylic acid] | 47
Cc1nc(-c2nnn(C)c2CNC(=O)OCC(C)CC(F)(F)F)ccc1OC[C@@H]1CC[C@H]1C(=O)O (mixture of isomers) [Example 44, (±)-(1R,2R)-2-(((2-methyl-6-(1-methyl-5-((((4,4,4-trifluoro-2-methylbutoxy)carbonyl)amino)methyl)-1H-1,2,3-triazol-4-yl)pyridin-3-yl)oxy)methyl)cyclobutane carboxylic acid] | 103
CCC(C)Cc1nc(NCc2c(-c3ccc(OCC45CC(C(=O)O)(C4)C5)c(C)n3)nnn2C)no1 (racemic) [Example 56, (±)-3-(((2-methyl-6-(1-methyl-5-(((5-(2-methylbutyl)-1,2,4-oxadiazol-3-yl)amino)methyl)-1H-1,2,3-triazol-4-yl)pyridin-3-yl)oxy)methyl)bicyclo[1.1.1]pentane-1-carboxylic acid] | 586
Cc1nc(-c2nnn(C)c2NC(=O)OCC2CC2)ccc1OC[C@H]1CC[C@@H]1C(=O)O (racemic) [Example 59, (±)-(1S,2S)-2-(((6-(5-(((cyclopropyl-methoxy)carbonyl)amino)-1-methyl-1H-1,2,3-triazol-4-yl)-2-methyl-pyridin-3-yl)oxy)methyl)cyclobutane-1-carboxylic acid] | 3590
Cc1nc(-c2nnn(C)c2CNc2noc(CC3CC3)n2)ccc1OC[C@H]1CC[C@@H]1C(=O)O (racemic) [Example 60, (±)-(1S,2S)-2-(((6-(5-(((5-(Cyclopropylmethyl)-1,2,4-oxadiazol-3-yl)amino)methyl)-1-methyl-1H-1,2,3-triazol-4-yl)-2-methylpyridin-3-yl)oxy)methyl) cyclobutane-1-carboxylic acid] | 1160
Cc1noc(-c2ccc(OC[C@@H]3CC[C@H]3C(=O)O)cn2)c1CNc1nccc(-c2ccccn2)n1 (single isomer, unassigned) [Example 3] | 7
Cc1noc(-c2ccc(OC[C@H]3CC[C@@H]3C(=O)O)cn2)c1CNc1nccc(-c2ccccn2)n1 (single isomer, unassigned) [Example 4] | 14
CCc1cc(OCc2c(-c3ccc(OC[C@@H]4CC[C@H]4C(=O)O)c(C)n3)nnn2C)ncn1 (single isomer, unassigned) [Example 12] | 77
CCc1cc(OCc2c(-c3ccc(OC[C@H]4CC[C@@H]4C(=O)O)c(C)n3)nnn2C)ncn1 (single isomer, unassigned) [Example 13] | 28
Cc1nc(-c2nnn(C)c2CNc2nccc(C(C)C)n2)ccc1OC[C@@H]1CC[C@H]1C(=O)O (single isomer, unassigned) [Example 24] | 1150
Cc1nc(-c2nnn(C)c2CNc2nccc(C(C)C)n2)ccc1OC[C@H]1CC[C@@H]1C(=O)O (single isomer, unassigned) [Example 25] | 51
Cn1nnc(-c2ccc(OC[C@@H]3CC[C@H]3C(=O)O)cn2)c1CNc1nccc(-c2ccccn2)n1 (single isomer, unassigned) [Example 28] | 67
Cn1nnc(-c2ccc(OC[C@H]3CC[C@@H]3C(=O)O)cn2)c1CNc1nccc(-c2ccccn2)n1 (single isomer, unassigned) [Example 29] | 186
Cc1nc(-c2nnn(C)c2Cn2nnc(CC3CC3)n2)ccc1OC[C@@H]1CC[C@H]1C(=O)O (single isomer, unassigned) [Example 38] | 63
Cc1nc(-c2nnn(C)c2Cn2nnc(CC3CC3)n2)ccc1OC[C@H]1CC[C@@H]1C(=O)O (single isomer, unassigned) [Example 39] | 250
Cc1noc(-c2ccc(OCC3CC(C(=O)O)C3)cc2)c1COC(=O)N(C)C1CCCC1 (stereo not drawn) [Example 30, 3-((4-(4-(((Cyclopentyl(methyl)carbamoyl)oxy)methyl)-3-methylisoxazol-5-yl)phenoxy)methyl)cyclobutanecarboxylic acid] | 316
CN(C(=O)OCc1c(-c2ccc(OCC34CC(C(=O)O)(C3)C4)cn2)nnn1C)C1CCCC1 [Example 51, 3-(((6-(5-(((cyclopentyl(methyl)carbamoyl)oxy)methyl)-1-methyl-1H-1,2,3-triazol-4-yl)pyridin-3-yl)oxy)methyl)bicyclo[1.1.1]pentane-1-carboxylic acid] | 417
Cc1nc(-c2nnn(C)c2COC(=O)N(C)CC2CCC2)ccc1OCC12CC(C(=O)O)(C1)C2 [Example 52, 3-(((6-(5-((((cyclobutylmethyl)(methyl)carbamoyl)oxy)methyl)-1-methyl-1H-1,2,3-triazol-4-yl)-2-methylpyridin-3-yl)oxy)methyl)bicyclo[1.1.1]pentane-1-carboxylic acid] | 372
Cc1noc(-c2ccc(OCC34CC(C(=O)O)(C3)C4)cc2)c1COC(=O)N(C)C1CCCC1 [Example 53, 3-((4-(4-(((cyclopentyl(methyl)carbamoyl)oxy)methyl)-3-methylisoxazol-5-yl)phenoxy)methyl)bicyclo[1.1.1]pentane-1-carboxylic acid] | 604
Cc1nc(-c2nnn(C)c2CNc2noc(CCC(C)C)n2)ccc1OCC12CC(C(=O)O)(C1)C2 [Example 55, 3-(((6-(5-(((5-isopentyl-1,2,4-oxadiazol-3-yl)amino)methyl)-1-methyl-1H-1,2,3-triazol-4-yl)-2-methylpyridin-3-yl)oxy)methyl)bicyclo[1.1.1]pentane-1-carboxylic acid] | 1980
Cc1nc(-c2nnn(C)c2COC(=O)N(C)CC2CCC2)ccc1OCC12CCC(C(=O)O)(C1)C2 [Example 57, 4-(((6-(5-((((cyclobutylmethyl)(methyl)carbamoyl)oxy)methyl)-1-methyl-1H-1,2,3-triazol-4-yl)-2-methylpyridin-3-yl)oxy)methyl)bicyclo[2.1.1]hexane-1-carboxylic acid] | 82

More lines, now with the values ahead:

IC50 [nM] | Compound
435 | Cc1nc(-c2nnn(C)c2COC(=O)NC2CCCCC2)ccc1OC[C@@H]1CC[C@H]1C(=O)O (racemic) [Example 45, (±)-(1R,2R)-2-(((6-(5-(((cyclohexylcarbamoyl)oxy)methyl)-1-methyl-1H-1,2,3-triazol-4-yl)-2-methyl-pyridin-3-yl)oxy)methyl)cyclobutane-1-carboxylic acid]
275 | CCCN(C)C(=O)OCc1c(-c2ccc(OC[C@@H]3CC[C@H]3C(=O)O)c(C)n2)nnn1C (racemic) [Example 46]
23 | Cc1nc(-c2nnn(C)c2COC(=O)N(C)C2CCCC2)ccc1OC[C@@H]1CC[C@H]1C(=O)O (racemic) [Example 47, (±)-(1R,2R)-2-(((6-(5-(((cyclopentyl(methyl)carbamoyl)oxy)methyl)-1-methyl-1H-1,2,3-triazol-4-yl)-2-methyl-pyridin-3-yl)oxy)methyl)cyclobutane carboxylic acid]
72 | Cc1nc(-c2nnn(C)c2COC(=O)N(C)C2CCC2)ccc1OC[C@@H]1CC[C@H]1C(=O)O (racemic) [Example 48, (±)-(1R,2R)-2-(((6-(5-(((cyclobutyl(methyl)carbamoyl)oxy)methyl)-1-methyl-1H-1,2,3-triazol-4-yl)-2-methylpyridin-3-yl)oxy)methyl)cyclobutanecarboxylic acid]
232 | Cc1nc(-c2nnn(C)c2COC(=O)N(C)CC(C)C)ccc1OC[C@@H]1CC[C@H]1C(=O)O (racemic) [Example 49, (±)-(1R,2R)-2-(((6-(5-(((isobutyl(methyl)carbamoyl)oxy)methyl)-1-methyl-1H-1,2,3-triazol-4-yl)-2-methylpyridin-3-yl)oxy)methyl)cyclobutanecarboxylic acid]
22 | CCCCN(C)C(=O)OCc1c(-c2ccc(OC[C@@H]3CC[C@H]3C(=O)O)c(C)n2)nnn1C (racemic) [Example 50, (±)-(1R,2R)-2-(((6-(5-(((butyl(methyl)carbamoyl)oxy)methyl)-1-methyl-1H-1,2,3-triazol-4-yl)-2-methylpyridin-3-yl)oxy)methyl)cyclobutanecarboxylic acid]
26 | Cc1nc(-c2nnn(C)c2COC(=O)N(C)CC2CCC2)ccc1OC[C@@H]1CC[C@H]1C(=O)O (single isomer, unassigned) [Example 7]
6 | Cc1nc(-c2nnn(C)c2COC(=O)N(C)CC2CCC2)ccc1OC[C@H]1CC[C@@H]1C(=O)O (single isomer, unassigned) [Example 8]
278 | Cc1nc(-c2nnn(C)c2COC(=O)N(C)CC2CCC2)ccc1O[C@H]1C[C@H](C(=O)O)C1 [Example 9, trans-3-((6-(5-((((cyclobutylmethyl)(methyl)carbamoyl)oxy)methyl)-1-methyl-1H-1,2,3-triazol-4-yl)-2-methylpyridin-3-yl)oxy)cyclobutane-1-carboxylic acid]
789 | Cc1nc(-c2nnn(C)c2COC(=O)N(C)CC2CCC2)ccc1O[C@H]1C[C@@H](C(=O)O)C1 [Example 10, cis-3-((6-(5-((((cyclobutylmethyl)(methyl)carbamoyl)oxy)methyl)-1-methyl-1H-1,2,3-triazol-4-yl)-2-methylpyridin-3-yl)oxy)cyclobutane-1-carboxylic acid]
